Reference: patent US12391679B2, “Benzamide-substituted bicyclic imidazo- and pyrazolo-fused -pyridine, -pyrimide, and -pyridazine compounds for treatment of inflammatory diseases” (ONCO3R Therapeutics BV, priority 2019, dated 2025)

Assays:
mouse CIA model = test: Collagen induced arthritis (CIA) model; format: in vivo
Experimental: Completed Freund's adjuvant (CFA) and incomplete Freund's adjuvant (IFA) were purchased from Difco. Bovine collagen type II (CII), lipopolysaccharide (LPS), and Enbrel® (etanercept) were obtained from Chondrex (L'Isle d'Abeau, France); Sigma (P4252, L'Isle d'Abeau, France), Wyeth (25 mg injectable syringe, France), respectively. All other reagents used were of reagent grade and all solvents were of analytical grade.
DBA1/J mice (male, 7-8 weeks old) were obtained from Charles River Laboratories (Écully, France). Mice were kept on a 12 h light/dark cycle. Temperature was maintained at 22° C., and food and water were provided ad libitum.
One day before the experiment, CII solution (2 mg/mL) was prepared with 0.05 M AcOH and stored at 4° C. Just before the immunization, equal volumes of adjuvant (IFA) and CII were mixed by a homogenizer in a pre-cooled glass bottle in an ice water bath. Extra adjuvant and prolonged homogenization may be required if an emulsion is not formed. 0.2 mL of the emulsion was injected intradermally at the base of the tail of each mouse on day 1, a second booster intradermal injection (CII solution at 2 mg/mL in […] 0.1 mL saline) was performed on […]. This immunization method was modified from published methods (Jou et al. 2005; Sims et al. 2004).
The therapeutic effects of the compounds were tested in the mouse CIA model. Mice were randomly divided into equal groups and each group contained 10 mice. All mice were immunized on day 1 and boosted on day 21. The negative control group was treated with vehicle (MC 0.5%) and the positive control group with Enbrel® (10 mg/kg, 3× week, sc). A compound of interest was typically tested at 3 doses per os (p.o.). At day 32, randomization between groups was performed with respect with clinical score and animals were therapeutically treated regarding their group until day 47. Body weight and clinical score, were recorded at least twice a week.
Arthritis is scored according to the method of Khachigian 2006, Lin et al 2007 and Nishida et al. 2004 (Khachigian 2006; Lin et al. 2007; Nishida et al. 2004). […]

SIK2 = molecular target: T1, SIK2 (Homo sapiens, UniProt Q9H0K1); test: 33P radioactive kinase assay, SIK2; format: biochemical; further: AMARA 5 µM, 10 µM ATP
T1 construct: purchased ThermoFisher Scientific PV4792
T1 sequence (Q9H0K1 whole entry): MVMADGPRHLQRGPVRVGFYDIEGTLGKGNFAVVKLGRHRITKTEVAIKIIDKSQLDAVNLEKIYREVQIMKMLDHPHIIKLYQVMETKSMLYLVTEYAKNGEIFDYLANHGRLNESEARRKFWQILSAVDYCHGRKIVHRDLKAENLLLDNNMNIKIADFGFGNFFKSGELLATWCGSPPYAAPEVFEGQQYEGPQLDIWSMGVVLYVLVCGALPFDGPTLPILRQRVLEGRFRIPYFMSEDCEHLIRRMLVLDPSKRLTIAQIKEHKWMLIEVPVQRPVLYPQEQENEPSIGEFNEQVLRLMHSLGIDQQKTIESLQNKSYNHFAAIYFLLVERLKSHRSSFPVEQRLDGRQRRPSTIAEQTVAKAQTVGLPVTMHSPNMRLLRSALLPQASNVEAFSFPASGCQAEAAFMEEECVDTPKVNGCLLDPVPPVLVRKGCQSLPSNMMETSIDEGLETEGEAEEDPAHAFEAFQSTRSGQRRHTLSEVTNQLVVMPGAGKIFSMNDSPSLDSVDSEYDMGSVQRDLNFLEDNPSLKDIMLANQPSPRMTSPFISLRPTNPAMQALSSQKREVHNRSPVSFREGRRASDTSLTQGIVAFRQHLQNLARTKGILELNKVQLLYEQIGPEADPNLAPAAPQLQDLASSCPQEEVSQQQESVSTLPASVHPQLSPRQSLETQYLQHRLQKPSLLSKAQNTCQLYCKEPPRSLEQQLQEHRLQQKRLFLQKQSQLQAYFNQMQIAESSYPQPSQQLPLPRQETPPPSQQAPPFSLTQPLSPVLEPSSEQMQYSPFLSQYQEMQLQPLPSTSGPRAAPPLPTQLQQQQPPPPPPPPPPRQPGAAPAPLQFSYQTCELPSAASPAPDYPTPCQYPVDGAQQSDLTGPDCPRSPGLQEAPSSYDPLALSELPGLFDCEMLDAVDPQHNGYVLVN
Method in brief: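 SIK1, SIK2 or SIK3 phosphorylation of AMARA peptide with [33P]-γ-ATP plus unlabeled ATP. 10-point 1/5 dilution series, 1% DMSO final; reactions stopped with phosphoric acid, filter-harvested and scintillation-counted. Percentage inhibition and average IC50 derived from dose-response curves.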

[1] = test system: Balb/c mice, IL-23 injected ear; test: Murine model of psoriatic-like epidermal hyperplasia induced by intradermal injections of IL-23; format: in vivo; conditions: mouse, intradermal IL-23
Experimental: Mouse recombinant IL-23, carrier free (Cat #14-8231) is provided by e-Bioscience (Frankfurt, Germany).
Balb/c mice (female, 18-20 g body weight) were obtained from Janvier Labs (Le Genest-Saint-Isle, France). Mice are kept on a 12 h light/dark cycle. Temperature was maintained at 22° C., food and water are provided ad libitum.
The design of the study was adapted from Rizzo H L. et al. (Rizzo et al. 2011).
On the first day (D1), the mice were shaved around the two ears. For 4 consecutive days (D1 to D4), the mice received a daily intradermal dose of mouse recombinant IL-23 (1 μg/20 μL in PBS/0.1% BSA) in the right pinna ear and 20 μL of PBS/0.1% BSA in the left pinna ear under anesthesia.
From D1 to D5, mice were dosed with test-compound or with vehicle, 1 h prior IL-23 injection.
The thickness of both ears was measured daily with an automatic caliper. Body weight was assessed at initiation and at sacrifice. On fifth day, 2 h after the last dosing, the mice were sacrificed. The pinnae of the ear were cut, excluding cartilage. The pinnae, placed in a vial containing 1 mL of RNAlater® solution.
There were 8 mice per group. The results were expressed as mean±SEM and statistical analysis was performed using one-way ANOVA followed by Dunnett's post-hoc test versus IL-23 vehicle groups.

`COc1cc(-c2cnn3cc(C4(N)CCC4)ccc23)cc(OC(F)F)c1C(=O)N[C@@H]1C[C@@H]1F` [Cpd 261, 4-[6-(1-aminocyclobutyl)pyrazolo[1,5-a]pyridin-3-yl]-2-(difluoromethoxy)-N-[(1R,2S)-2-fluorocyclopropyl]-6-methoxy-benzamide] was tested. Which “clinical score compared to the vehicle group” value (mouse CIA model; 30 mg/kg p.o. b.i.d.) did it give?
Its value is “statistically significant decrease”.

For `COc1cc(-c2cnc3cc(C(C)(C)C#N)ccn23)cc(OC)c1C(=O)NC1CC1` [Cpd 28, 4-[7-(1-cyano-1-methyl-ethyl)imidazo[1,2-a]pyridin-3-yl]-N-cyclopropyl-2,6-dimethoxy-benzamide], which IC50 (SIK2) is on record?
The IC50 was > 500 nM.

`COc1cc(-c2cnc3cc(C(C)(C)C#N)ccn23)cc(OC(F)F)c1C(=O)NC1CC1` [Cpd 19, 4-[7-(1-cyano-1-methyl-ethyl)imidazo[1,2-a]pyridin-3-yl]-N-cyclopropyl-2-(difluoromethoxy)-6-methoxy-benzamide] was tested. Which “ear thickness compared to IL-23 vehicle group” value ([1]; 10 mg/kg p.o. b.i.d.) did it give?
Its value is “statistically significant decrease”.

And the IC50 (SIK2)?
The IC50 was > 500 nM.

Which IC50 (SIK2) does the source give for `COc1cc(-c2cnc3cc(C4(C#N)CC4)ccn23)cc(OC(F)F)c1C(=O)NC1CC1` [Cpd 33, 4-[7-(1-cyanocyclopropyl)imidazo[1,2-a]pyridin-3-yl]-N-cyclopropyl-2-(difluoromethoxy)-6-methoxy-benzamide] here?
Its IC50 is 10 to 100 nM.

Which “clinical score compared to the vehicle group” value (mouse CIA model; 3 mg/kg p.o. b.i.d.) does the source give for `COc1cc(-c2cnn3cc(C(C)(C)C#N)ccc23)cc(OC(F)F)c1C(=O)N[C@@H]1C[C@@H]1F` [Cpd 219, 4-[6-(1-cyano-1-methyl-ethyl)pyrazolo[1,5-a]pyridin-3-yl]-2-(difluoromethoxy)-N-[(1R,2S)-2-fluorocyclopropyl]-6-methoxy-benzamide] here?
The value was “statistically significant decrease”.

How did the IC50 (SIK2) turn out when `CCC(C)(C#N)c1ccn2c(-c3cc(OC)c(C(=O)NC4CC4)c(OC(F)F)c3)cnc2c1` (stereo not shown) [Cpd 27, 4-[7-(1-cyano-1-methyl-propyl)imidazo[1,2-a]pyridin-3-yl]-N-cyclopropyl-2-(difluoromethoxy)-6-methoxy-benzamide] was run?
The IC50 was > 500 nM.

What does the source list for `COc1cc(-c2cnc3cc(C4COC4)ccn23)cc(OC(F)F)c1C(=O)NC1CC1` [Cpd 174, N-cyclopropyl-2-(difluoromethoxy)-6-methoxy-4-[7-(oxetan-3-yl)imidazo[1,2-a]pyridin-3-yl]benzamide]?
ear thickness compared to IL-23 vehicle group ([1]; 3 mg/kg p.o. b.i.d.): statistically significant decrease; clinical score compared to the vehicle group (mouse CIA model; 60 mg/kg p.o. b.i.d.): statistically significant decrease

For `COc1cc(-c2cnc3cc(C4(C#N)COC4)ccn23)cc(OC(F)F)c1C(=O)NC1CC1` [Cpd 117, 4-[7-(3-cyanooxetan-3-yl)imidazo[1,2-a]pyridin-3-yl]-N-cyclopropyl-2-(difluoromethoxy)-6-methoxy-benzamide], which “ear thickness compared to IL-23 vehicle group” value ([1]; 30 mg/kg p.o. b.i.d.) is on record?
Its value is “statistically significant decrease”.
